Where a SMILES comes first, the peptide text is derived from it.
Columns and labels:
[1] = Stability test in presence of GSH; assay type: physicochemical; details: around 1 mM peptide in H2O, 1 mM GSH, 37 °C, 48 h, HPLC
Procedure: (§1) GSH solution (to 1 mM) or 1 μL of reconstituted human plasma (Sigma -Aldrich), and the resulting
mixture vortexed for 30 s and then shaken at 37 °C. After 48 h, an aliquot of each reaction mixture was […]

[2] = Stability test in human plasma; assay type: in vitro ADME; details: 100 μL of around 1 mM peptide in H2O with 1 μL reconstituted human plasma (Sigma-Aldrich), 37 °C, 48 h, HPLC
Procedure: as §1
mixture vortexed for 30 s and then shaken at 37 °C. […]
DAD1 E, Sig=280,4 Ref =360,100 (SHUANG\ISOBUT YLENE STAPLED SOMATOST AT IN_PLASMA.D)

[3] = PAMPA, pH 7.4

Row | Structure (SMILES) | stability in the presence of glutathione [1] | stability in the presence of glutathione ([1]; listed as Stapled Somatostatin) | stability in human plasma [2] | stability in human plasma ([2]; listed as Stapled Somatostatin) | Permeability [3] | −log P e [3]
1 | C=C1CSC[C@@H](C(=O)O)NC(=O)[C@H](CO)NC(=O)[C@H]([C@@H](C)O)NC(=O)[C@H](Cc2ccccc2)NC(=O)[C@H]([C@@H](C)O)NC(=O)[C@H](CCCCN)NC(=O)[C@H](Cc2c[nH]c3ccccc23)NC(=O)[C@H](Cc2ccccc2)NC(=O)[C@H](Cc2ccccc2)NC(=O)[C@H](CC(N)=O)NC(=O)[C@H](CCCCN)NC(=O)[C@@H](NC(=O)CNC(=O)[C@H](C)N)CSC1 [stapled somatostatin] | fully stable | No significant degradation | fully stable | No significant degradation |  | 
2 | CC(=O)N[C@@H](CS)C(=O)N1CCC[C@H]1C(=O)N[C@@H](CC(C)C)C(=O)N[C@@H](CC(=O)O)C(=O)N[C@@H](Cc1ccccc1)C(=O)N[C@@H](C)C(=O)N[C@@H](CS)C(N)=O [II] (Ac-CPLDFAC-NH2) |  |  |  |  | 0.76 ×10⁻⁶ cm/s | 5.12
3 | CC(=O)N[C@@H](CS)C(=O)N1CCC[C@H]1C(=O)N[C@@H](CC(=O)O)C(=O)N[C@@H](Cc1ccccc1)C(=O)N[C@@H](CC(C)C)C(=O)N[C@@H](C)C(=O)N[C@@H](CS)C(N)=O [III] (Ac-CPDFLAC-NH2) |  |  |  |  | <0.001 ×10⁻⁶ cm/s | 
